# Tested on: human CD40 transgenic mice
# Assay: Mouse skin graft rejection model
# Type: in vivo
# Details: for Skin graft score: 3 mpk
# Description: Male Balb/c mice, 6 weeks old, were purchased from the Laboratory Animal Management Department, Shanghai Institute of Planned Parenthood Research. Housing environment: SPF; certification number: 20180006023393.
# On day −2 of the experiment, the mice were intraperitoneally injected with tacrolimus FK506 or CD40 antagonistic antibodies. On day 0 of the experiment, donor Balb/c mice and C57BL6/J mice were anesthetized with 4% chloral hydrate. The tails of the donor mice were removed, and full circles of skin, 1 cm in length, were isolated from the tails. The hair on the acceptor mice's back was removed, and an incision was made along the skin layer. An equal area of skin was removed while preserving the back fat and connective tissue. The donor skin was placed on the acceptor mice's incision site, and the incision was closed with glue. The mice were then placed back in cages to recover.
# The mice were dosed according to the administration regimens in Table 17. After 7 days of recovery, the mouse skin survival was observed daily and rejection scores were recorded.
smiles,measurement,setting,value
"C=CC[C@@H]1/C=C(\C)C[C@H](C)C[C@H](OC)[C@H]2O[C@@](O)(C(=O)C(=O)N3CCCC[C@H]3C(=O)O[C@H](/C(C)=C/[C@@H]3CC[C@@H](O)[C@H](OC)C3)[C@H](C)[C@@H](O)CC1=O)[C@H](C)C[C@@H]2OC [FK506, tacrolimus, reference compound]",Skin graft score,"8 days, scale 3 (no rejection) to 0",2.5
same,Skin graft score,"10 days, scale 3 to 0",1.5
same,Skin graft score,"15 days, scale 3 to 0",0.5
same,Skin graft score,"20 days, scale 3 to 0",0
same,Skin graft survival rate (%),"Day 15, 3 mpk ip",16.7%

# Source: patent publication US20250340661A1, “ANTI CD40 ANTIBODY, ANTIGEN BINDING FRAGMENT AND MEDICAL USE THEREOF” (Jiangsu Hengrui Pharmaceuticals Co., Ltd., priority 2021, published 2025)
